In patent US20150368669A1, “GENE DELIVERY SYSTEM […] GENE AND PHARMACEUTICAL COMPOSITION USING RELAXIN” (INDUSTRY-ACADEMIC COOPERATION FOUNDATION, YONSEI UNIVERSITY, priority 2004, published 2015):

What was measured:
Format in all cases: cell-based, human
C33A cells = experiment: Flow cytometry, Annexin-V and PI dual staining, C33A
Method: To examine apoptosis induced by relaxin, human tumor cell lines, U343, U87MG, C33A, Hep3B and A549, were introduced to 25 T culture flasks and 24 hr later, infected with Ad-ΔE1B or Ad-ΔE1B-RLX adenovirus at an MOT of 0.5-5. Cells were treated with 0.1-1 μM CPT-11 […] as a positive control and treated with PBS as a negative control. After 48 hr, 72 hr and 96 hr of infection, the infected cells were collected and fixed in 70% ethanol at 4° C. for 24 hr. Following the fixation, the cells were incubated with a mixture of PI (propidium iodide, […]) and RNase for 15 min and the analysis by flow cytometry was performed. In addition, to examine early apoptosis induced by relaxin, several human tumor cell lines were infected with Ad-ΔE1B or Ad-ΔE1B-RLX adenovirus as described above. The infected cells were collected and then processed for Annexin V/PI dual staining according to manufacturer's instruction in the ApoAlert V-FITC apoptosis kit (Clontech, Palo Alto, Calif.), followed by flow cytometric analysis.

U343 = experiment: TUNEL assay, U343
Method: (§1) U343 (5×10^4), U87MG (5×10^4), C33A (5×10^5), Hep3B (4×10^5), and A549 (5×10^4) cells were plated onto a chamber slide and then infected with adenovirus at an MOT of 0.2-20. Following 24 hr and 48 hr of infection, medium was removed and TUNNEL assay was carried out according to the manufacturer's instruction of ApopTag kit (Intergen, Purchase, N.Y.). For color development, cells were incubated with peroxidase-conjugated streptavidin and then diaminobenzidine (DAKO, Carpinteria, Calif.). At the time that color of cells became brown, cells were counterstained with 0.5% methyl green for 10 min and observed under microscope in more than 4 selected fields. The ratio of stained cells to total cells was calculated.

U87MG = experiment: TUNEL assay, U87MG
Method: as §1

C33A = experiment: TUNEL assay, C33A
Method: as §1

Hep3B = experiment: TUNEL assay, Hep3B
Method: as §1

A549 = experiment: TUNEL assay, A549
Method: as §1

SMILES: CC[C@@]1(O)C(=O)OCc2c1cc1n(c2=O)Cc2cc3ccccc3nc2-1 [CPT, camptothecin]
- apoptotic rate (Annexin-V+/PI−) (C33A cells): 57.10%
- Proportion of apoptotic cells (%) (U343): 53.5 ± 7.45%
- Proportion of apoptotic cells (%) (U87MG): 83.0 ± 29.29%
- Proportion of apoptotic cells (%) (C33A): 60.1 ± 25.41%
- Proportion of apoptotic cells (%) (Hep3B): 71.2 ± 15.73%
- Proportion of apoptotic cells (%) (A549): 37.5 ± 5.35%
